Assay results from patent US8372871B2, “Histidinol dehydrogenase inhibitors, and use thereof as medicaments” (priority 2008, dated 2013).

What was measured:
[1] = tested on: B. suis in the macrophage; format: cell-based, Brucella suis
[2] = molecular target: B. suis histidinol dehydrogenase (Brucella suis biovar 1, UniProt Q8G2R2); assay: biochemical; format: biochemical
B. suis = assay: microbe, parasite or virus in culture; format: cell-based, Brucella suis
[3] = Brucella suis, 168 h, read-out: Effects on the growth of B. suis (%) (inhibition of bacterial growth)

Sequence of B. suis histidinol dehydrogenase (Q8G2R2 whole entry, looked up): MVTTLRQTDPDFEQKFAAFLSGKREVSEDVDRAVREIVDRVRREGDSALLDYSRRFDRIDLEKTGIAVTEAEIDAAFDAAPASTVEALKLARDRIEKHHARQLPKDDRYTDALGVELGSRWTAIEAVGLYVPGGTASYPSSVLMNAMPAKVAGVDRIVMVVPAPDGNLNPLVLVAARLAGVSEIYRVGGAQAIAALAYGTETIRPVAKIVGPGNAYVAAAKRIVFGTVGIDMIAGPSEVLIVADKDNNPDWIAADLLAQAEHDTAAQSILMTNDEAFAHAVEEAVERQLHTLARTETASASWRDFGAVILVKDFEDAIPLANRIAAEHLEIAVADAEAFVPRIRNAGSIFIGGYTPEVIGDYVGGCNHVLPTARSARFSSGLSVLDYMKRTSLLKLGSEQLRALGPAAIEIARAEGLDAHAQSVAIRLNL

N[C@@H](Cc1c[nH]cn1)C(=O)Cc1ccc(C#Cc2ccccc2)cc1 [Compound 3a, (3S)-3-amino-4-(1H-imidazol-4-yl)-1-[4-(phenylethynyl)phenyl] butan-2-one dihydrochlorhydrate]
Inhibition of the intracellular proliferation of the bacteria in the macrophage [1]: approximately 1000 times
Affinity for HDH [2]: significant affinity
IC50 [2]: 3 nM
Inhibition of the growth of the bacteria in liquid medium (B. suis): completely inhibit
inhibition at 50 µM (B. suis; [3]): 100%
inhibition at 100 µM (B. suis; [3]): 100%
